Results as given in patent publication US20110027858A1, “Method of Modifying Fungal Morphology” (University of Akron, priority 2009, published 2011).

Assays:
[1] = system: T. reesei; assay: Shake flask growth of T. reesei with Triton X-100 (Example 6): morphology, growth, enzyme activity; format: cell-based, Trichoderma reesei RUT C30
Description: The effect of growing a fungus in a growth medium containing Triton X-100 was tested. A culture was grown on a growth medium containing (g/L): (NH4)2SO4 1.4, KH2PO4 2, MgSO4.7H2O 0.3, CaCl2.2H2O 0.4, urea 0.3, peptone 1.0, Tween-80 0.2, FeSO4.7H2O 0.005, MnSO4.H2O 0.0016, ZnSO4.7H2O 0.0014, CoCl2 0.002, and lactose 10.0. Initially the unadjusted pH was 5.5 after autoclaving.
Test cultures were grown in 50 mL volume in 250 mL flasks at 28° C. in a Que Orbital shaker (Model 4703, Parkersburg, W.Va., USA) at 250 rpm without pH control, initially at 5.5, for 7 days. Triton X-100 was tested at the following concentrations (g/L): 0.1, 0.3, 0.6, 0.8, 1.0, 1.5.
Cultures were followed for 7 days and visually checked for bulk morphology. Periodic monitoring was done aseptically by collecting a 2 mL representative sample every 24 hrs to measure cell concentration, enzyme activity, sugar concentration, and residual surfactant amounts.

[2] = system: T. reesei; assay: Effects of several surfactants on morphology (flocculation / pellet formation) of T. reesei; format: cell-based, Trichoderma reesei RUT C30; conditions: for Effective in changing morphology?: compared with 0.5 g/L and 1 g/L surfactant concentrations
Description: The effects of several surfactants on the morphology of T. reesei were studied. TABLE 1 summarizes the observations of the effects of several surfactants regarding to flocculation or formation of pellets in T. reesei. […] All surfactants listed in TABLE 1 were compared with 0.5 g/L and 1 g/L surfactant concentrations.

Row | Substance | global average doubling time ([1]; across tested Triton concentrations, following the lag phase) | average increase in the enzyme activity ([1]; additive concentration in excess of 0.1 g/L) | lag compared to the surfactant free system ([1]; concentrations above 0.1 g/L) | concentration producing "pellet" growth ([1]; tested at 0.1-1.5 g/L, 7 days, 28° C., 250 rpm) | Size of generally uniform pellets formed [2] | Effective in changing morphology? [2] | Description: tendency toward cell flocculation with increasing surfactant concentration ([2]; 0.5 g/L and 1 g/L surfactant, flocculation is correlated with pellet formation)
1 | 4-(1,1,3,3-tetramethylbutyl)phenyl-polyethylene glycol [Triton X-100] | 9.1 ± 1.8 h | 73±12% | one-day | greater than 0.3 g/L | uniform ~1 mm pellets | YES | –
2 | polyoxyethylene sorbitan monolaurate [TWEEN ® 20] | – | – | – | – | – | YES | shows tendencies toward increased
